How the values were obtained:
[1] = target: Tyrosine-protein kinase Lyn (Homo sapiens, UniProt P07948); assay: Inhibition of LYNA
[2] = Permeability across apical to basolateral side of human Caco2 cells after 120 mins by LC-MS/MS analysis; format: ADME, cell-based; settings: Caco-2, read-out: permeability
[3] = target: Receptor tyrosine-protein kinase erbB-4 (Homo sapiens, UniProt Q15303); assay: Inhibition of ERBB4
Angiopoietin-1 receptor = Angiopoietin-1 receptor (Homo sapiens, UniProt Q02763); assay: Inhibition of TIE2
[4] = target: Mitogen-activated protein kinase 1 (Homo sapiens, UniProt P28482); assay: Inhibition of ERK2
[5] = Solubility of the compound in phosphate buffer at pH 7.4 by high throughput shake flask assay; format: physicochemical
[6] = target: RAC-alpha serine/threonine-protein kinase (Homo sapiens, UniProt P31749); assay: Inhibition of AKT1
[7] = target: Proto-oncogene tyrosine-protein kinase Src (Homo sapiens, UniProt P12931); assay: Inhibition of SRC
[8] = target: Inhibitor of nuclear factor kappa-B kinase subunit alpha (Homo sapiens, UniProt O15111); assay: Inhibition of IKKalpha
[9] = Inhibition of PDK
[10] = Inhibition of AMPK
[11] = target: Platelet-derived growth factor receptor alpha (Homo sapiens, UniProt P16234); assay: Inhibition of PDGFRalpha
[12] = Inhibition of CK1
[13] = target: Mast/stem cell growth factor receptor Kit (Homo sapiens, UniProt P10721); assay: Inhibition of KIT
[14] = target: Insulin-like growth factor 1 receptor (Homo sapiens, UniProt P08069); assay: Inhibition of IGF1R
[15] = target: Macrophage-stimulating protein receptor (Homo sapiens, UniProt Q04912); assay: Inhibition of RON
[16] = target: Dual specificity tyrosine-phosphorylation-regulated kinase 1A (Homo sapiens, UniProt Q13627); assay: Inhibition of DYRK1A
[17] = target: Proto-oncogene tyrosine-protein kinase receptor Ret (Homo sapiens, UniProt P07949); assay: Inhibition of RET
[18] = target: Serine/threonine-protein kinase pim-1 (Homo sapiens, UniProt P11309); assay: Inhibition of PIM1
[19] = target: Tyrosine-protein kinase Yes (Homo sapiens, UniProt P07947); assay: Inhibition of YES
[20] = target: Mitogen-activated protein kinase 3 (Homo sapiens, UniProt P27361); assay: Inhibition of ERK1
[21] = target: RAF proto-oncogene serine/threonine-protein kinase (Homo sapiens, UniProt P04049); assay: Inhibition of C-RAF
[22] = target: Ribosomal protein S6 kinase alpha-1 (Homo sapiens, UniProt Q15418); assay: Inhibition of RSK1
[23] = target: Protein kinase C beta type (Homo sapiens, UniProt P05771); assay: Inhibition of PKCbeta
[24] = target: Tyrosine-protein kinase CSK (Homo sapiens, UniProt P41240); assay: Inhibition of CSK
[25] = Inhibition of RLK
[26] = target: Mitogen-activated protein kinase 14 (Homo sapiens, UniProt Q16539); assay: Inhibition of P38alpha
[27] = target: Tyrosine-protein kinase ABL1 (Homo sapiens, UniProt P00519); assay: Inhibition of ABL
[28] = target: Indoleamine 2,3-dioxygenase 1 (Homo sapiens, UniProt P14902); assay: Inhibition of IDO1
[29] = target: Cytoplasmic tyrosine-protein kinase BMX (Homo sapiens, UniProt P51813); assay: Inhibition of BMX
[30] = target: Serine/threonine-protein kinase Nek1 (Homo sapiens, UniProt Q96PY6); assay: Inhibition of NEK1
[31] = target: Macrophage colony-stimulating factor 1 receptor (Homo sapiens, UniProt P07333); assay: Inhibition of FMS
[32] = target: Rho-associated protein kinase 2 (Homo sapiens, UniProt O75116); assay: Inhibition of ROCK2
[33] = target: Fibroblast growth factor receptor 4 (Homo sapiens, UniProt P22455); assay: Inhibition of FGFR4
[34] = target: Serine/threonine-protein kinase Chk1 (Homo sapiens, UniProt O14757); assay: Inhibition of CHK1
[35] = target: Tyrosine-protein kinase ZAP-70 (Homo sapiens, UniProt P43403); assay: Inhibition of ZAP70
[36] = target: Tyrosine-protein kinase JAK3 (Homo sapiens, UniProt P52333); assay: Inhibition of JAK3
[37] = target: T1, Receptor-type tyrosine-protein kinase FLT3 (Homo sapiens, UniProt P36888); assay: Inhibition of FLT3
T1 sequence (P36888 whole entry): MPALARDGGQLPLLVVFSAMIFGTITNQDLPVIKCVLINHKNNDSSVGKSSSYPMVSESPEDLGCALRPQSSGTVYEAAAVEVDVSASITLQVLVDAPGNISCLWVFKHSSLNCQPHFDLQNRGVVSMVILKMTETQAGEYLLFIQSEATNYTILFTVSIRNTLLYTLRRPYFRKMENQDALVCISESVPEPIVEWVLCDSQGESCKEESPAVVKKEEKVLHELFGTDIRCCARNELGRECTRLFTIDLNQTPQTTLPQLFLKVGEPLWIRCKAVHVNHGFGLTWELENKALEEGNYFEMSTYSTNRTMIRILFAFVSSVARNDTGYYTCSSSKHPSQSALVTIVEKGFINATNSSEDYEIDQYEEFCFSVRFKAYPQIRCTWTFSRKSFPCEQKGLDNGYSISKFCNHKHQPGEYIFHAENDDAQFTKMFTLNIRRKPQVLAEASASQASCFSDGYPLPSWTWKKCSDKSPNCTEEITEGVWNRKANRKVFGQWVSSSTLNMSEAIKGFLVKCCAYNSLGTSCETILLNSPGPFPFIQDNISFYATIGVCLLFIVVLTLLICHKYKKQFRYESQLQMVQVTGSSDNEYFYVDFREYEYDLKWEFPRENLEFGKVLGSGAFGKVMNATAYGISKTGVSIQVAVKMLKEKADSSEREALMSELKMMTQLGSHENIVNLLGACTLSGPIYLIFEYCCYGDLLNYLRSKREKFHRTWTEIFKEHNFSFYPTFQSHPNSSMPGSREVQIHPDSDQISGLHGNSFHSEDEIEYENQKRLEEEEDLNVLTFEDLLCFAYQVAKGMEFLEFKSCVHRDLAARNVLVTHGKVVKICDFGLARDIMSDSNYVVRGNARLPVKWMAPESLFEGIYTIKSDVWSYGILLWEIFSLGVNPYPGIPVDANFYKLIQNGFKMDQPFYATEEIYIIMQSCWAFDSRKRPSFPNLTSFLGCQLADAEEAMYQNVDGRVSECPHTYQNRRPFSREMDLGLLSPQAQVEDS

Focal adhesion kinase 1 = Focal adhesion kinase 1 (Homo sapiens, UniProt Q05397); assay: Inhibition of FAK
[38] = target: Serine/threonine-protein kinase 3 (Homo sapiens, UniProt Q13188); assay: Inhibition of MST2
[39] = target: Tyrosine-protein kinase HCK (Homo sapiens, UniProt P08631); assay: Inhibition of HCK
[40] = target: Mitogen-activated protein kinase kinase kinase 7 (Homo sapiens, UniProt O43318); assay: Inhibition of TAK1

Sequence of Macrophage-stimulating protein receptor (Q04912 25-304 limits assumed): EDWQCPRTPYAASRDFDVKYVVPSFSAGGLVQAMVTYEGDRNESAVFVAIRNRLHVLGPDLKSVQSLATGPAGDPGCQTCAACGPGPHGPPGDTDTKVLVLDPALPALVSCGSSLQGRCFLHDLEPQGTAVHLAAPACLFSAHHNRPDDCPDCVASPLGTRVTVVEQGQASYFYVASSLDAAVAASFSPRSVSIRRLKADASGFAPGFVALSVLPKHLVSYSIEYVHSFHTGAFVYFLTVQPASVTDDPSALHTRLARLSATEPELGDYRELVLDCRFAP
Sequence of Macrophage-stimulating protein receptor (Q04912 310-1400 limits assumed): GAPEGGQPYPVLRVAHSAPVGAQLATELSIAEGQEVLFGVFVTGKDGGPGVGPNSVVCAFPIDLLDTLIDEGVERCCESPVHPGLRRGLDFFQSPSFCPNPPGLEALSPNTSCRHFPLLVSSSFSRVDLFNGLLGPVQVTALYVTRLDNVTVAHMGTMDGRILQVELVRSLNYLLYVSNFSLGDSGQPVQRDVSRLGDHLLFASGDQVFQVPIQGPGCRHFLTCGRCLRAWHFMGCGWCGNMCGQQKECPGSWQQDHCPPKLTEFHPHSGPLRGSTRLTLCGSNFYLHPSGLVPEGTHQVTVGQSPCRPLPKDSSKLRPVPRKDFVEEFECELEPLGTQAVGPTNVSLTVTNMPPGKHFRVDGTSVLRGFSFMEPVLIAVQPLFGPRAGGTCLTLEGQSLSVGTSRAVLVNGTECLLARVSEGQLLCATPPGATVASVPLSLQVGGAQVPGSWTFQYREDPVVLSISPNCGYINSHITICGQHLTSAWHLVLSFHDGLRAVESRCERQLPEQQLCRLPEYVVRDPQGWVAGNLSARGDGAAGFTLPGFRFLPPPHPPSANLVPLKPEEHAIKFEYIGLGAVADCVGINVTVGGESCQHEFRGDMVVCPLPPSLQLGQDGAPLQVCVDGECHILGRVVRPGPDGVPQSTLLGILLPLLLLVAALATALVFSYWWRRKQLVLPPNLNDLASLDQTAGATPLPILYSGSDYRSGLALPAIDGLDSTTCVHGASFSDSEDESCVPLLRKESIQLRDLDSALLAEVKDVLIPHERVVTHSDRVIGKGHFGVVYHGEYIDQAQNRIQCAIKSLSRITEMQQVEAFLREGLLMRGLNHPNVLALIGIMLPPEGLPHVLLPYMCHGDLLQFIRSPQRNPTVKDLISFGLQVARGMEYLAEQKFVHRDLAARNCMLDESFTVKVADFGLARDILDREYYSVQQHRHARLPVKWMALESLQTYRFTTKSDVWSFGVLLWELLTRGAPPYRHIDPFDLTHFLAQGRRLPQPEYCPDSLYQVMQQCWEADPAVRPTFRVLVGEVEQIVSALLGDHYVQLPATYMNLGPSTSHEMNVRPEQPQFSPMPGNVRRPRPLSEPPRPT
Sequence of Fibroblast growth factor receptor 4 (P22455 whole entry): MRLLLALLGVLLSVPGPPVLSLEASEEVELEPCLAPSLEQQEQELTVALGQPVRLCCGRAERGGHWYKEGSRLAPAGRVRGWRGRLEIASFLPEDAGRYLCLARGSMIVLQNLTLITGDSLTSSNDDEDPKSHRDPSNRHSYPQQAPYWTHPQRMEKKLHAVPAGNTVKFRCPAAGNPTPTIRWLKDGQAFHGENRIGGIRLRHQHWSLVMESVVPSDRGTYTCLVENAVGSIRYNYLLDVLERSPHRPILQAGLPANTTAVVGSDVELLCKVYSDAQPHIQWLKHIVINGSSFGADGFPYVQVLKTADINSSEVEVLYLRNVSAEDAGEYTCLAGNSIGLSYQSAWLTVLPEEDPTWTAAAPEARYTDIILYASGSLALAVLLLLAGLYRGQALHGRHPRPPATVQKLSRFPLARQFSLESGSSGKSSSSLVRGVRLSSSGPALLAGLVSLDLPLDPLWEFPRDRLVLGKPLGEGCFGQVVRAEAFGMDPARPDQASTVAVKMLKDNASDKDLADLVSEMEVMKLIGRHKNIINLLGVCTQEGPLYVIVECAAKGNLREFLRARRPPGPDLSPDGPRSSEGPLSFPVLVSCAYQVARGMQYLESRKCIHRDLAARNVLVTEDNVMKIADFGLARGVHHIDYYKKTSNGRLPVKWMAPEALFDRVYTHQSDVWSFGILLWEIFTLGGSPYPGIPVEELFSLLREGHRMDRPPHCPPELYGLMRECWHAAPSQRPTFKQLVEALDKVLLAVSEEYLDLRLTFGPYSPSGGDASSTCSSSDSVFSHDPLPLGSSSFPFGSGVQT
Sequence of Tyrosine-protein kinase Yes (P07947 whole entry): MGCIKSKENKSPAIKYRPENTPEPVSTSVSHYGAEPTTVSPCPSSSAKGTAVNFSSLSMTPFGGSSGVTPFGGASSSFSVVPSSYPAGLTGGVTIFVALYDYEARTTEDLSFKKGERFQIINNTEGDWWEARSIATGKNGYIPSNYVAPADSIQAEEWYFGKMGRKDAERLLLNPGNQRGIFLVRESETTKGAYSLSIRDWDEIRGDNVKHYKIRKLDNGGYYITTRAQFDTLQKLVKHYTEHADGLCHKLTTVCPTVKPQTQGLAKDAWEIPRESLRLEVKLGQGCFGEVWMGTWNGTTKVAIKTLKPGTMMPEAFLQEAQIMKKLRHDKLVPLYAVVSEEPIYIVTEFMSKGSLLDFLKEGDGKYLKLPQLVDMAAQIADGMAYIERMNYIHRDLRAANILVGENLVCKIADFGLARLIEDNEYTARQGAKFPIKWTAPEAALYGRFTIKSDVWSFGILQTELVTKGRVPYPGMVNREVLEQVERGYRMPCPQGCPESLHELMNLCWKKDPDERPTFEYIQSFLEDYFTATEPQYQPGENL
Sequence of Tyrosine-protein kinase CSK (P41240 whole entry): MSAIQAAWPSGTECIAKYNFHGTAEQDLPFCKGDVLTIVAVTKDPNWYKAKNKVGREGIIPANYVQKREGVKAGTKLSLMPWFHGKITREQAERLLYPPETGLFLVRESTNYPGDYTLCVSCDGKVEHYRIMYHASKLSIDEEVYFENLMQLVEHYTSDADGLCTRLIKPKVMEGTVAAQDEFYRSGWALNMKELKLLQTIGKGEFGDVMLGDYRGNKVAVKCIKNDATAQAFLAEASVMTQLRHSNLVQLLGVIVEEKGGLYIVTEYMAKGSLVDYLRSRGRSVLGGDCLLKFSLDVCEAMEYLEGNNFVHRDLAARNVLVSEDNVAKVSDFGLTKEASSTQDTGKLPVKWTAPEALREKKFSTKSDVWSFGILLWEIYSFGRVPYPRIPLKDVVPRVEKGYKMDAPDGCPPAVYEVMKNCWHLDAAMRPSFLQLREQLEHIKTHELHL
Sequence of Proto-oncogene tyrosine-protein kinase Src (P12931 2-536 limits assumed): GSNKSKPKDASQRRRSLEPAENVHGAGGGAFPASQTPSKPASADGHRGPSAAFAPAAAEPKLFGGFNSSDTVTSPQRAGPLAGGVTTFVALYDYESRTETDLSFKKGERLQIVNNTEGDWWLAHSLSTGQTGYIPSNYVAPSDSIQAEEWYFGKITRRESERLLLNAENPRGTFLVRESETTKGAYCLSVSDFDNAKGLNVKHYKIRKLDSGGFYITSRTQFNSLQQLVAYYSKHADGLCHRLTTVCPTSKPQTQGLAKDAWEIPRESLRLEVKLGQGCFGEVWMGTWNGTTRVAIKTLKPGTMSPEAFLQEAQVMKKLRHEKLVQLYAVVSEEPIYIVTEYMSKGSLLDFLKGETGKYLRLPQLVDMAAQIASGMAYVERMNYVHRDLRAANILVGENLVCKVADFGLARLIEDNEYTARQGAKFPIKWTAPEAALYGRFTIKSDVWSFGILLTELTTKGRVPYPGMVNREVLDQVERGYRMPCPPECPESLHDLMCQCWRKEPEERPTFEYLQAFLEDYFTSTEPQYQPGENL
Sequence of Tyrosine-protein kinase Lyn (P07948 whole entry): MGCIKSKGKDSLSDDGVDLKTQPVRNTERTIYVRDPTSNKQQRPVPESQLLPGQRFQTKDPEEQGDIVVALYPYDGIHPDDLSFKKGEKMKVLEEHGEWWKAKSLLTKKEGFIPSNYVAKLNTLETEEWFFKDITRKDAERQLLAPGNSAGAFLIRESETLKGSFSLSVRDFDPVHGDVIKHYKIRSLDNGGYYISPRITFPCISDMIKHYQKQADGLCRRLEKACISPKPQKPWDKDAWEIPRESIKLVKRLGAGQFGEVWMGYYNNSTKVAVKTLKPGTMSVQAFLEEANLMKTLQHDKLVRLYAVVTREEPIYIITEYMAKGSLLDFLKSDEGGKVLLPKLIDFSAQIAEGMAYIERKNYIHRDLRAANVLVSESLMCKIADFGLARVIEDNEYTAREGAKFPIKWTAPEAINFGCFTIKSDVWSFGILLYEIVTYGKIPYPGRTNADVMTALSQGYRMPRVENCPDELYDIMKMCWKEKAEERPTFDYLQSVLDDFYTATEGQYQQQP
Sequence of Protein kinase C beta type (P05771 whole entry): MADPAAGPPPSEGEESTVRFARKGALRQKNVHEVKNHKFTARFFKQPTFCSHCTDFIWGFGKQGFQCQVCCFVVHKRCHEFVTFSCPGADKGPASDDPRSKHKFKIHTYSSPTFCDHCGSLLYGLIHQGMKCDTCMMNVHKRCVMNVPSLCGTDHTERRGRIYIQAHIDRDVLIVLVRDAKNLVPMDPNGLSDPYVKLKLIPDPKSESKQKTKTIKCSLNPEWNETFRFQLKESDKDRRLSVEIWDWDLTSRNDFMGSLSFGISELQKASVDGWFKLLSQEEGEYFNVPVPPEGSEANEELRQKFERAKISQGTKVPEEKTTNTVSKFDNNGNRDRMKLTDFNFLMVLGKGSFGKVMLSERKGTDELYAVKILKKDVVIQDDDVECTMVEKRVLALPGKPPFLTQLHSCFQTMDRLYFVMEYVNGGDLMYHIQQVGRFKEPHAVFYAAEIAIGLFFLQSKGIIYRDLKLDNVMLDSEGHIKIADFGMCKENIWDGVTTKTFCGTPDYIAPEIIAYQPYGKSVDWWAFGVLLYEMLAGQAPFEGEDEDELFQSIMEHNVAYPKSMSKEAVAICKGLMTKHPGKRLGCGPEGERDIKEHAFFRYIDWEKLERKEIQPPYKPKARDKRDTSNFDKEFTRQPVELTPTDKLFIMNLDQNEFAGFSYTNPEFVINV

CNc1cncc(-c2c[nH]c(=O)c(NC(=O)c3ccc(N4CCC[C@H]4CN4CCCC4)cc3)c2)n1
> 2000 nM: Ki [4] | Ki [20] | Ki [21] | Ki [25] | Ki [35]
150 µg/mL: solubility thermodynamic [5]
> 1000 nM: Ki [1] | Ki [3] | Ki (Angiopoietin-1 receptor) | Ki [6] | Ki [8] | Ki [9] | Ki [10] | Ki [11] | Ki [12] | Ki [14] | Ki [15] | Ki [16] | Ki [17] | Ki [18] | Ki [19] | Ki [22] | Ki [23] | Ki [24] | Ki [26] | Ki [27] | Ki [28] | Ki [29] | Ki [30] | Ki [31] | Ki [32] | Ki [33] | Ki [34] | Ki (Focal adhesion kinase 1) | Ki [38] | Ki [39]
200 nM: Ki [13]
20 nM: Ki [37]
10.8 ×10⁻⁶ cm/s: Papp A→B at 2 h [2]
350 nM: Ki [36]
860 nM: Ki [40]
120 nM: Ki [7]
